Test results: patent US4719046A, “Crysene derivatives” (Burroughs Wellcome Co., priority 1984, dated 1988)
Where a name gives a salt, the structure may show the parent alone.

Assays:
CD2-F1 mice = assay: LD20 in the P388/0 test mice; type: in vivo, mouse (CD2-F1); details: IP days 1, 5, 9, doses on a mg/kg basis
Protocol: (§1) CD2-F1 mice, of the same sex, weighing 20±3 g, are used for this test. Control and test animals are injected intraperitoneally with a suspension of ~10^6 viable P388/0 tumor cells on day 0. In each test, several dose levels which bracket the LD20 of the compound are evaluated; each dose level group contains six animals. The test compounds are prepared either in physiologic saline containing 0.05% Tween 80 or distilled water containing 5% dextrose and are administered intraperitoneally on days 1, 5, and 9 relative to tumor implant. Doses are on a mg/kg basis according to individual animals' body weights. The day of death for each animal is recorded, the median identified for each group and the ratios of median survival time for treated (T)/control (C) groups are calculated. The criterion for activity is T/C×100≥120%.
(§2) ^A Values in parentheses are the highest nontoxic dose where the
(§3) LD20 was not determined.

[1] = tested on: lymphocytic leukemia P388/0; assay: Lymphocytic Leukemia P388/0 Test; type: in vivo, mouse (CD2-F1); details: median survival T/C; IP days 1, 5, 9; active if ≥120%; optimal dose mg/kg: 1B 121, 1C 115, 2 100, 3 100, 6G 65, 18B 88, 19H 110, 6H 60, 7 110, 9 300, 10B 1013, 11C 150, 12G 90, 5F 225, 13D 303, 14 196, 15B 250, 16 1012, 4B 180
From the text: (§4) Methods for evaluating the antitumor activity of these compounds are essentially those used in the Tumor Panel by the Developmental Therapeutics Program, Division of Cancer Treatment, National Cancer Institute, A. Goldin, et al., Methods in Cancer Research, Vol. XVI, p. 165, Academic Press (1979). Some modifications, in dose level and schedule have been made to increase the testing efficiency.
as §1

[2] = tested on: Streptococcus pyogenes (CN10); assay: Antibacterial test, Streptococcus pyogenes (agar dilution); type: cell-based
From the text: (§5) Anitbacterial testing against […] (S3264) and Streptococcus pyogenes (CN10) was done with slight modifications using standard agar dilution assays as outlined in Manual of Clinical Microbiology Second Ed., E. H. Lennette. E. H. Spaulding and J. P. Traunt Eds., American Society for Microbiology, Washington, DC, 1974

Mycoplasma smegmatis = assay: Antibacterial test, Mycoplasma smegmatis (agar dilution); type: cell-based
From the text: as §5

melanotic melanoma B16 = assay: Melanotic Melanoma B16 test; type: in vivo, mouse (B6C3-F1); details: median survival T/C; IP days 1, 5, 9; active if >125%; dose mg/kg: 1C 100, 6G 50, 3 70, 2 75, 18B 70
From the text: as §4, §1
B6C3-F1 mice of the same sex, weighing 20±3 g, are used for this test. A suspension of B16 cells is prepared from a non-necrotic portion of solid tumor tissue obtained from a passage mouse. One gram of tumor is homogenized in 9 mL ice-cold Earle's salts solution and filtered through 1000 mesh screen to remove debris. 0.5 mL of the resulting brei is injected intraperitoneally into each animal. Dosing is carried out as in the P388/0 and L1210 tests. Days of death are recorded for a 60 day period and T/C ratio calculated as in the P388/0 and L1210 tests. The criterion for activity is T/C×100>125%.

[3] = LD20 in the P388/0 test mice; type: in vivo, mouse (CD2-F1); details: mouse, in vivo, IP days 1, 5, 9, doses on a mg/kg basis, read-out: LD20 column, value in parentheses: highest nontoxic dose where the LD20 was not determined
Protocol: as §1, §2, §3

Lewis lung carcinoma = assay: Lewis Lung Carcinoma Test; type: in vivo, mouse (BD-F1; tumor from C57B1/6); details: median survival T/C; 105 mg/kg days 1, 5, 9; active if ≥140%
From the text: as §4
CD2-F1 mice, of the same sex, weighing 20±3 g, are used for this test. Control and test animals are injected intraperitoneally with a suspension of ~10^6 viable P388/0 tumor cells on day 0. In each test, several dose levels which bracket the LD20 of the compound are evaluated; each dose level group contains six animals. […] The day of death for each animal is recorded, the median identified for each group and the ratios of median survival time for treated (T)/control (C) groups are calculated. […]
This tumor arose spontaneously in the lung of a C57B1/6 mouse and is maintained by subcutaneous passage in that strain. […] In each test, several dose levels which bracket the LD20 for the compound are evaluated. […] The day of death for each animal is recorded, the median identified for each group and the ratios of median survival time for treated (T)/control (C) groups are calculated. […]

M5076 sarcoma = assay: M5076 Sarcoma Test; type: in vivo, mouse (B6C3-F1); details: median survival T/C; 105 mg/kg IP days 1, 5, 9; active if ≥125%
From the text: as §4, §1
This sarcoma arose as a solid tumor in the ovary of a C57B1/6 mouse and was subsequently converted to the ascitic form for intraperitoneal use. […]

colon 38 carcinoma = assay: Colon 38 Carcinoma Test; type: in vivo, mouse (C57B1/6); details: tumor weight T/C at day 20; 120 mg/kg IP days 1, 5, 9; active if ≤42%
From the text: as §4
This chemically-induced tumor arose in a C57B1/6 mouse and is maintained as a solid tumor in that mouse strain. The subcutaneously growing solid tumor is aseptically excised from passage mice and placed in sterile saline. The tumor is trimmed free of visible necrotic and connective tissue, then divided into 2-3 mm cubes. A cube is implanted subcutaneously in the ventral thoracie region with a sterile trochar on day 0. In each test several dose levels which bracket the LD20 for the compound are evaluated. Ten animals are included in each dose level group and thirty animals in the untreated control group. The test compounds are prepared either in physiologic saline containing 0.05% Tween 80 or distilled water containing 5% dextrose and are administered intraperitoneally on days 1, 5 and 9 after tumor implant. […] At day 20, the animals are sacrificed and the longest (L) and shortest (W) dimensions of each tumor measured with vernier calipers. Tumor weight is calculated from the formula (L× (W)^2 /2). […]

[4] = tested on: lymphocytic leukemia L1210; assay: Lymphocytic Leukemia L1210 Test; type: in vivo, mouse (CD2-F1); details: median survival T/C; 120 mg/kg IP days 1, 5, 9; active if ≥125%
From the text: as §4, §1
The protocol for this test is identical to that for P388/0, except that the number of L1210 cells implanted on day 0 is ~10^5 /mouse. […]

Herpes simplex 1/vero = Herpes simplex 1/vero plaque inhibition screen; type: cell-based
From the text: Antiviral testing against Herpes simplex 1/vero was done using plaque inhibition methods as outlined in P. Collins and D. J. Bauer, Proc. N.Y. Acad. Sci. 284, 49 (1977) and by plaque reduction methods as outlined in P. Collins and D. J. Bauer, J. Antimicrobial Chemotherapy 3, Supplement A, 73(1977). The column headings labeled Score, Toxicity, and Zone of Inhibition refer to the plaque inhibition screen while the IC50 heading to the plaque reduction screen.

**Q.** With `CC(CO)(CO)NCc1cc2c3ccccc3c(Cl)cc2c2ccccc12` [Example 4B, 2-(((12-Chloro-6-chrysenyl)methyl)amino)-2-methyl-1,3-propanediol methanesulfonate.1/3H2 O] as the molecule, how does the LD20 (CD2-F1 mice) read?
**A.** 180 mg/kg

**Q.** Which LD20 (CD2-F1 mice) does the source give for `CC(CO)(CCO)NCc1cc2c3ccccc3ccc2c2ccccc12` (centres unmarked) [Example 12G, 2-((6-chrysenylmethyl)amino)-2-methyl-1,4-butanediol hyrochloride.1/3EtOH] here?
**A.** 90 mg/kg

**Q.** Which LD20 (CD2-F1 mice) does the source give for `CS(=O)(=O)O.C[C@H](O)C(NCc1cc2c3ccccc3ccc2c2ccccc12)[C@@H](C)O` (stereo partly drawn) [Example 13D, meso-3-((6-Chrysenylmethyl)amino)-2,4-pentanediol methanesulfonate] here?
**A.** 675 mg/kg

**Q.** What about the “T/C × 100% (Excluding 30 Day Survivors)” value [1] of the same molecule?
**A.** +200%

**Q.** For `CCc1cc2c3ccccc3c(CNC(C)(CO)CO)cc2c2ccccc12` [Example 15B, 2-(((12-Ethyl-6-chrysenyl)methyl)amino)-2-methyl-1,3-propanediol methanesulfonate], which LD20 (CD2-F1 mice) is on record?
**A.** 150 mg/kg

**Q.** Which LD20 (CD2-F1 mice) does the source give for `COCC(C)(CO)NCc1cc2c3ccccc3ccc2c2ccccc12.Cl` (centres unmarked) [Example 9D, 3-methoxy-2-((6-chrysenylmethyl)amino)-2-methyl-1-propanol hydrochloride] here?
**A.** 425 mg/kg

**Q.** With `CC(CO)(CO)NCc1ccc2ccc3c4ccccc4ccc3c2c1` [Example 19H, 2-((3-Chrysenylmethyl)amino)-2-methyl-1,3-propanediol methanesulfonate] as the molecule, how does the LD20 (CD2-F1 mice) read?
**A.** 150 mg/kg

**Q.** For `OCC(CO)NCc1cc2c3ccccc3ccc2c2ccccc12` [Example 14, 2-((6-Chrysenylmethyl)amino)-1,3-propanediol methanesulfonate], which LD20 (CD2-F1 mice) is on record?
**A.** 160 mg/kg

**Q.** Which MIC [2] does the source give for `CC(C)(CO)NCc1cc2c3ccccc3ccc2c2ccccc12.Cl` [Example 18B, 2-((6-Chrysenylmethyl)amino)-2-methylpropanol hydrochloride] here?
**A.** ≤ 3 mg/L

**Q.** And the MIC (Mycoplasma smegmatis)?
**A.** 10 mg/L

**Q.** And the LD20 (CD2-F1 mice)?
**A.** 80 mg/kg

**Q.** What about the “T/C × 100% Excluding 60 day Survivors” value (melanotic melanoma B16) of the same molecule?
**A.** +125%

**Q.** What does the source list for `CC(=O)OCC(C)(COC(C)=O)NCc1cc2c3ccccc3ccc2c2ccccc12` [Example 16, 2-((6-Chrysenylmethyl)amino)-2-methyl-1,3-propanediol diacetate]?
**A.** MIC [2]: 10 mg/L; MIC (Mycoplasma smegmatis): 10 mg/L; LD20 (CD2-F1 mice): 675 mg/kg

**Q.** Which LD20 (CD2-F1 mice) does the source give for `C[C@@H](O)[C@@](C)(CO)NCc1cc2c3ccccc3ccc2c2ccccc12.Cl` (relative stereo) [Example 7, (+-)(2R*,3R*)-2-((6-Chrysenylmethyl)amino)-2-methyl-1,3-butanediol hydrochloride] here?
**A.** 100 mg/kg

**Q.** With `O[C@@H]1CCC[C@H](O)[C@H]1NCc1cc2c3ccccc3ccc2c2ccccc12` [Example 10B, (1α,2β,3α)-2-((6-Chrysenylmethyl)amino)-1,3-cyclohexanediol hydrochloride] as the molecule, how does the MTD [3] read?
**A.** 675 mg/kg

**Q.** With `C[C@@H](O)C(C)(NCc1cc2c3ccccc3ccc2c2ccccc12)[C@@H](C)O` (relative stereo) [Example 5F] as the molecule, how does the LD20 (CD2-F1 mice) read?
**A.** 225 mg/kg

**Q.** What does the source list for `CC(CO)(CO)NCc1cc2c3ccccc3ccc2c2ccccc12` [Example 1C, 2-((6-Chrysenylmethyl)amino)-2-methyl-1,3-propanediol methanesulfonate]?
**A.** T/C × 100% Excluding 60 day Survivors (Lewis lung carcinoma): +191%; T/C × 100% (M5076 sarcoma): +168%; LD20 (CD2-F1 mice): 105 mg/kg; T/C × 100% (colon 38 carcinoma): 36%; T/C × 100% Excluding 60 day Survivors (melanotic melanoma B16): +146%; T/C × 100% Excluding 30 day Survivors [4]: +252%

**Q.** Which “Zone of Inhibition” value (Herpes simplex 1/vero) does the source give for `CC(CO)(CO)NCc1cc2c3ccccc3ccc2c2ccccc12.Cl` [Example 1B, 2-((6-Chrysenylmethyl)amino)-2-methyl-1,3-propanediol hydrochloride] here?
**A.** 43

**Q.** And the MIC [2]?
**A.** ≤ 10 mg/L

**Q.** What about the MIC (Mycoplasma smegmatis) of the same molecule?
**A.** ≤ 10 mg/L

**Q.** What about the LD20 (CD2-F1 mice) of the same molecule?
**A.** 140 mg/kg

**Q.** With `CS(=O)(=O)O.C[C@H](O)[C@@](C)(CO)NCc1cc2c3ccccc3ccc2c2ccccc12` (relative stereo) [Example 6H, (+-)(2R*,3S*)-2-((6-Chrysenylmethyl)amino)-2-methyl-1,3-butanediol methanesulfonate] as the molecule, how does the LD20 (CD2-F1 mice) read?
**A.** 60 mg/kg

**Q.** Which results are given for `Cl.OCC(CO)(CO)NCc1cc2c3ccccc3ccc2c2ccccc12` [Example 2, 2-((6-chrysenylmethyl)amino)-2-hydroxymethyl-1,3-propanediol hydrochloride]?
**A.** MIC [2]: 10 mg/L; MIC (Mycoplasma smegmatis): 10 mg/L; LD20 (CD2-F1 mice): 100 mg/kg; T/C × 100% Excluding 60 day Survivors (melanotic melanoma B16): +144%

**Q.** With `CC(C)C(CO)(CO)NCc1cc2c3ccccc3ccc2c2ccccc12` [Example 11C, 2-((6-Chrysenylmethyl)amino)-2-isopropyl-1,3-propanediol hydrochloride 1/3 H2 O] as the molecule, how does the LD20 (CD2-F1 mice) read?
**A.** 150 mg/kg

**Q.** Which MIC [2] does the source give for `CCC(CO)(CO)NCc1cc2c3ccccc3ccc2c2ccccc12.Cl` [Example 3, 2-((6-Chrysenylmethyl)amino)-2-ethyl-1,3-propanediol hydrochloride] here?
**A.** 10 mg/L

**Q.** And the MIC (Mycoplasma smegmatis)?
**A.** > 100 mg/L

**Q.** And the LD20 (CD2-F1 mice)?
**A.** 100 mg/kg

**Q.** And the “T/C × 100% Excluding 60 day Survivors” value (melanotic melanoma B16)?
**A.** +144%
